Test results as given in patent publication US9586951B2 (FUJIFILM Corporation, priority 2013, dated 2017).

Each molecule was assayed against T1, ATM (Homo sapiens, UniProt Q13315) (assay: ATM inhibition test (phosphorylation of Chk2 generated by ionizing radiation, AlphaScreen SureFire)). Settings: phosphorylated Chk2 in NCI-H460 cells, ionizing radiation 8Gy, 1 hour after test compound treatment; read-out: ATM inhibitory activity.
T1 construct: detecting phosphorylation of Chk2 in a human non-small cell lung cancer cell line NCI-H460 (ATCC company); host or cells: NCI-H460 human non-small cell lung cancer cells
T1 sequence (Q13315 whole entry): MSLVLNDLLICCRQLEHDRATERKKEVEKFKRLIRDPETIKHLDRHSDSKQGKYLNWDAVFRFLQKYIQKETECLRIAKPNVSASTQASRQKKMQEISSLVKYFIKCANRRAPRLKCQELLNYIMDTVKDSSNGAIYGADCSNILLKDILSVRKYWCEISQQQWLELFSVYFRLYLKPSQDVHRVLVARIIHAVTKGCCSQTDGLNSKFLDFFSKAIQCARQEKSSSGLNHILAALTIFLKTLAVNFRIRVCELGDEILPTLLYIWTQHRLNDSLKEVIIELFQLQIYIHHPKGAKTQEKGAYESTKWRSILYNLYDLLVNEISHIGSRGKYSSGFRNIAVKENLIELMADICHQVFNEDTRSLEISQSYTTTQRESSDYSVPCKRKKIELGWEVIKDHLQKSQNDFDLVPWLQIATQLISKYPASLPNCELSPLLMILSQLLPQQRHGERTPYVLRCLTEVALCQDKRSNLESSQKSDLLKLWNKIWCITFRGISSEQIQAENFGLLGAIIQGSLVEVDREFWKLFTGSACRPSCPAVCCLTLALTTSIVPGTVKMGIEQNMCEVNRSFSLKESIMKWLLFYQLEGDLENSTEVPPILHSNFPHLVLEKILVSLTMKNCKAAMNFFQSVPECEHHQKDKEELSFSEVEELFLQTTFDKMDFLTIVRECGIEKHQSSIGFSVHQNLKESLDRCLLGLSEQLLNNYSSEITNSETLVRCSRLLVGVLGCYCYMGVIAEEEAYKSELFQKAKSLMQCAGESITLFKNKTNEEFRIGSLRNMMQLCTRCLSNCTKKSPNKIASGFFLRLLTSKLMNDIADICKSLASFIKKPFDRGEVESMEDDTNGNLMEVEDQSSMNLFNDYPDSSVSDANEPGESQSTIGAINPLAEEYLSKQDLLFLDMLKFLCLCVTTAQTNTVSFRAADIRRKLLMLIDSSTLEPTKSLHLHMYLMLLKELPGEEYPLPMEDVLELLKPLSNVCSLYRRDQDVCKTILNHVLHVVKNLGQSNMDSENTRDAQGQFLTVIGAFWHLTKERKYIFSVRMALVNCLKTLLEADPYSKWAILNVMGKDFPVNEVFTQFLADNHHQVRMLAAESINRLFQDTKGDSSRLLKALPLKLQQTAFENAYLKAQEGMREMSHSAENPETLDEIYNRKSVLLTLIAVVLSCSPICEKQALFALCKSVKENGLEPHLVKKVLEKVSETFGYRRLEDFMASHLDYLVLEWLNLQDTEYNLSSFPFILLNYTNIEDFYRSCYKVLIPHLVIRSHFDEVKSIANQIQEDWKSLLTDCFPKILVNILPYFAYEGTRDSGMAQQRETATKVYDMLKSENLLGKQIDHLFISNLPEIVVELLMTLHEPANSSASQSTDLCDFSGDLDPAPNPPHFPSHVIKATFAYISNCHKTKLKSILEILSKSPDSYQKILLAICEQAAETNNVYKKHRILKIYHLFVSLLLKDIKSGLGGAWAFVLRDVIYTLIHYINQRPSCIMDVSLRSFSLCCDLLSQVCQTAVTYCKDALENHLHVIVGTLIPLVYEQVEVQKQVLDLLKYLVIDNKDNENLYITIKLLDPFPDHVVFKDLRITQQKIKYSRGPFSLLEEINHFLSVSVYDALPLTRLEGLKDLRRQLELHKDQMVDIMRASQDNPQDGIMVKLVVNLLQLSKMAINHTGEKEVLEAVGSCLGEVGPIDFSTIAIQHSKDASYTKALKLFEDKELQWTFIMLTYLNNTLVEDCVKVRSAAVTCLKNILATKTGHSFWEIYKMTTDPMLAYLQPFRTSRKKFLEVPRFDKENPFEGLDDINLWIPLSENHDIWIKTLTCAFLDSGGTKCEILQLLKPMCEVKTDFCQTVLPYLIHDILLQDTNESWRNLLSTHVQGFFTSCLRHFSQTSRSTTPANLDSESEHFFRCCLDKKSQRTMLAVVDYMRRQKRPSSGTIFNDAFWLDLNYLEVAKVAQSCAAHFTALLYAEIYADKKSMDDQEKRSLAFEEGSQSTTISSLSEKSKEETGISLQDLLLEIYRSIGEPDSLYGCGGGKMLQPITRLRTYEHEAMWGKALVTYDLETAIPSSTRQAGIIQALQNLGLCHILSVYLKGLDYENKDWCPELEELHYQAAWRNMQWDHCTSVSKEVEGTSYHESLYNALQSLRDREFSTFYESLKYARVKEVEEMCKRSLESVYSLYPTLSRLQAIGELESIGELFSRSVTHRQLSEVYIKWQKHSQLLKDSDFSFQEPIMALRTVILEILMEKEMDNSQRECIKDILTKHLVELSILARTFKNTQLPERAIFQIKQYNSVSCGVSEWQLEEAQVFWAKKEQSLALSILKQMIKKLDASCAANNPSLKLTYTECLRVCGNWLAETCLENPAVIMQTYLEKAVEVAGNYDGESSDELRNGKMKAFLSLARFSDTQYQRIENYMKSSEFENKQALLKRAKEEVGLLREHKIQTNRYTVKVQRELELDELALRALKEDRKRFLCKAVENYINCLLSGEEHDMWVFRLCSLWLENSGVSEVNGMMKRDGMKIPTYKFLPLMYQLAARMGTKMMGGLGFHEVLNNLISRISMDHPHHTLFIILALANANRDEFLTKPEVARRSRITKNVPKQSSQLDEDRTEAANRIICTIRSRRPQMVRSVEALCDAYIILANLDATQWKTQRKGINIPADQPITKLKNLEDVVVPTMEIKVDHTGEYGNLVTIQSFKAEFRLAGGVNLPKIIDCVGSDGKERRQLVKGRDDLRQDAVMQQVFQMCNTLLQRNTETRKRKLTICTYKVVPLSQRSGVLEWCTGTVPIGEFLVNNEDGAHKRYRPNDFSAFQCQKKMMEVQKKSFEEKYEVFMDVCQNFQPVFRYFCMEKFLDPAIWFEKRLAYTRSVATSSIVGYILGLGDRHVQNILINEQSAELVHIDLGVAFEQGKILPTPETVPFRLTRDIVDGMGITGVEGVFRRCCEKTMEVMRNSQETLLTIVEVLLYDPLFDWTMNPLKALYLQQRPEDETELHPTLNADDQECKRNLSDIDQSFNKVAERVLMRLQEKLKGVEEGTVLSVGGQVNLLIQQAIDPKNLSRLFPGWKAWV
Format: cell-based
Method: ATM inhibitory effects of a test compound were measured by detecting phosphorylation of Chk2 in a human non-small cell lung cancer cell line NCI-H460 (ATCC company). The level of phosphorylated Chk2 generated by an ionizing radiation was measured using AlphaScreen SureFire (TGR Biosciences).
The cells were seeded by 40000 cells per well in 96-well CellBIND® plates (Corning International Inc.), and incubated at 37° C. overnight in 5% CO2. […] 1 hour after a test compound treatment, half of the plates were irradiated with ionizing radiation 8Gy (Faxitron Bioptics, LLC, RX-650 type). The plates irradiated with ionizing radiation and the plates not being irradiated with ionizing radiation were incubated at 37° C. for 1 hour in 5% CO2. […] Subsequent operations were performed according to the instruction book of AlphaScreen SureFire. […] The inhibition ratio was calculated by the following equation. Inhibition ratio (%)=((signal of drug untreated wells in the plates irradiated with ionizing radiation−signal of drug treated wells in the plates irradiated with ionizing radiation)/(signal of drug untreated wells in the plates irradiated with ionizing radiation−signal of drug untreated wells in the plates not being irradiated with ionizing radiation))×100

Molecule	IC50 [nM]
O=c1cc(N2CCOCC2)cc(-c2cccc3c2Oc2ccc(NC4CCN(Cc5ccccn5)CC4)cc2C3)[nH]1 [Example 2-28-1, 4-Morpholino-6-(7-((1-(pyridin-2-ylmethyl)piperidin-4-yl)amino)-9H-xanthen-4-yl)pyridin-2 (1H)-one]	500 to 2000
CC(=O)Nc1cncc(CNc2ccc3c(c2)Cc2cccc(-c4cc(N5CCOCC5)cc(=O)[nH]4)c2O3)c1 [Example 2-2-13, N-(5-(((5-(4-Morpholino-6-oxo-1,6-dihydropyridin-2-yl)-9H-xanthen-2-yl)amino)methyl)pyridin-3-yl)acetamide]	500 to 2000
O=C1CCCN1c1cncc(CNc2ccc3c(c2)Cc2cccc(-c4cc(N5CCOCC5)cc(=O)[nH]4)c2O3)c1 [Example 2-2-67, 4-Morpholino-6-(7-(((5-(2-oxopyrrolidin-1-yl)pyridin-3-yl)methyl)amino)-9H-xanthen-4-yl)pyridin-2(1H)-one]	100 to 500
COCCN(C)CCNc1ccc2c(c1)Sc1cccc(-c3cc(N4CCOCC4)cc(=O)[nH]3)c1S2 [Example 1-10-12, 6-(7-((2-((2-Methoxyethyl) (methyl)amino)ethyl)amino)thianthren-1-y1)-4-morpholino pyridin-2(1H)-one]	100 to 500
COCCN(CCOC)C[C@@H](COC)Nc1ccc2c(c1)Sc1cccc(-c3cc(N4CCOCC4)cc(=O)[nH]3)c1S2 [Example 1-46-3, (S)-6-(7-((1-(bis(2-methoxyethyl)amino)-3-methoxypropan-2-yl)amino)thianthren-1-yl)-4-morpholinopyridin-2(1H)-one]	100 to 500
Cc1ccc(C(Nc2ccc3c(c2)Sc2cccc(-c4cc(N5CCOCC5)cc(=O)[nH]4)c2S3)C2CN(CCO)CCO2)nc1 (racemic) [Example 1-57-1, 6-(7-(((4-(2-hydroxyethyl)morpholin-2-yl)(5-methylpyridin-2-yl)methyl)amino)thianthren-1-yl)-4-morpholinopyridin-2(1H)-one]	< 100
CCCCN1CCC(Nc2ccc3c(c2)Cc2cccc(-c4cc(N5CCOCC5)cc(=O)[nH]4)c2O3)CC1C (stereo not shown) [Example 2-19-2, 6-(7-((1-Butyl-2-methylpiperidin-4-yl)amino)-9H-xanthen-4-yl)-4-morpholinopyridin-2(1H)-one]	500 to 2000
CC(Nc1ccc2c(c1)Cc1cccc(-c3cc(N4CCOCC4)cc(=O)[nH]3)c1O2)c1ccnc(F)c1 (stereo not shown) [Example 2-14-25]	100 to 500
6-(7-((4,4-Difluoropiperidin- 1-yl)methyl)-9H-xanthen-4- yl)-4-morpholino pyridin-2 (1H)-one [Example 2-2-39]	< 100
Cc1ccc(C(C)Nc2ccc3c(c2)Sc2cccc(-c4cc(N5CCOCC5)cc(=O)[nH]4)c2S3)nc1 (single isomer, unassigned) [Example 1-12-143-2, 6-(7-((1-(5-methylpyridin-2-yl)ethyl)amino)thianthren-1-yl)-4-morpholinopyridin-2(1H)-one]	100 to 500
O=c1cc(N2CCOCC2)cc(-c2cccc3c2Oc2ccc(NCc4ccc(OC5CCOCC5)nc4)cc2C3)[nH]1 [Example 2-2-4, 4-Morpholino-6-(7-(((6-((tetrahydro-2H-pyran-4-yl)oxy)pyridin-3-yl)methyl)amino)-9H-xanthen-4-yl)pyridin-2 (1H)-one]	500 to 2000
Nc1ncccc1CNc1ccc2c(c1)Sc1cccc(-c3cc(N4CCOCC4)cc(=O)[nH]3)c1O2 [Example 4-8-20, 6-(8-(((2-Aminopyridin-3-yl)methyl)amino)phenoxathiin-4-yl)-4-morpholino pyridin-2(1H)-one]	500 to 2000
O=c1cc(N2CCOCC2)cc(-c2cccc3c2Sc2ccc(NCCN4CCCOCC4)cc2S3)[nH]1 [Example 1-10-6, 6-(7-((2-(1,4-Oxazepan-4-yl)ethyl)amino)thianthren-1-yl)-4-morpholinopyridin-2(1H)-one]	100 to 500
COc1ccncc1CN1CCC(Nc2ccc3c(c2)Cc2cccc(-c4cc(N5CCOCC5)cc(=O)[nH]4)c2O3)CC1 [Example 2-28-11, 6-(7-((1-((4-Methoxypyridin-3-yl)methyl)piperidin-4-yl)amino)-9H-xanthen-4-yl)-4-morpholino pyridin-2(1H)-one]	100 to 500
Cc1cnc(C(CCN(C)C)Nc2ccc3c(c2)Sc2cccc(-c4cc(N5CCOCC5)cc(=O)[nH]4)c2O3)cn1 (single isomer, unassigned) [Example 10-7, 6-(8-((3-(Dimethylamino)-1-(5-methylpyrazin-2-yl)propyl)amino)phenoxathiin-4-yl)-4-morpholinopyridin-2(1H)-one]	< 100
COc1cncc(C(C)Nc2ccc3c(c2)Sc2cccc(-c4cc(N5CCOCC5)cc(=O)[nH]4)c2S3)c1 (single isomer, unassigned) [Example 1-12-145-2, 6-(7-((1-(5-methoxypyridin-3-yl)ethyl)amino)thianthren-1-yl)-4-morpholinopyridin-2(1H)-one]	< 100

Molecule	IC50 [nM]
O=c1cc(N2CCOCC2)cc(-c2cccc3c2Oc2ccc(NC4CCN(CC(F)(F)F)CC4)cc2C3)[nH]1 [Example 2-34, 4-Morpholino-6-(7-((1-(2,2,2-trifluoroethyl)piperidin-4-yl)amino)-9H-xanthen-4-yl)pyridin-2(1H)-one]	100 to 500
CC(CN1CCC(Nc2ccc3c(c2)Cc2cccc(-c4cc(N5CCOCC5)cc(=O)[nH]4)c2O3)CC1)c1ccccc1 (stereo not shown) [Example 2-28-37, 4-Morpholino-6-(7-((1-(2-phenylpropyl)piperidin-4-yl)amino)-9H-xanthen-4-yl) pyridin-2(1H)-one]	100 to 500
O=c1cc(N2CCOCC2)cc(-c2cccc3c2Sc2ccc(NC4CCCN(C5CCCCC5)C4)cc2S3)[nH]1 (stereo not shown) [Example 1-24-1, 6-(7-((1-Cyclohexylpiperidin-3-yl)amino)thianthren-1-yl)-4-morpholinopyridin-2(1H)-one]	100 to 500
CCN(CC)C(=O)CN1CCN(c2cccc(CNc3ccc4c(c3)Sc3cccc(-c5cc(N6CCOCC6)cc(=O)[nH]5)c3S4)n2)CC1 [Example 1-12-34, N,N-Diethyl-2-(4-(6-(((6-(4-morpholino-6-oxo-1,6-dihydro-pyridin-2-yl)thianthren-2-yl)amino)methyl)pyridin-2-yl)piperazin-1-yl) acetamide]	500 to 2000
O=c1cc(N2CCOCC2)cc(-c2cccc3c2Oc2ccc(NCc4ccccc4)cc2C3)[nH]1 [Example 2-14-3, 6-(7-(Benzylamino)-9H-xanthen-4-yl)-4-morpholino pyridin-2(1H)-one]	100 to 500
COC1CCN(CCNc2ccc3c(c2)Sc2cccc(-c4cc(N5CCOCC5)cc(=O)[nH]4)c2S3)CC1 [Example 1-10-15, 6-(7-((2-(4-Methoxypiperidin-1-yl)ethyl)amino)thianthren-1-yl)-4-morpholino pyridin-2(1H)-one]	100 to 500
COc1ccc(CNc2ccc3c(c2)Sc2cccc(-c4cc(N5CCOCC5)cc(=O)[nH]4)c2S3)nc1 [Example 1-12-12, 6-(7-(((5-Methoxypyridin-2-yl)methyl)amino)thianthren-1-yl)-4-morpholino pyridin-2(1H)-one]	100 to 500
Cc1cccc(CCN2CCC(Nc3ccc4c(c3)Cc3cccc(-c5cc(N6CCOCC6)cc(=O)[nH]5)c3O4)CC2)c1 [Example 2-30-8, 6-(7-((1-(3-Methylphenethyl)piperidin-4-yl)amino)-9H-xanthen-4-yl)-4-morpholino pyridin-2 (1H)-one]	500 to 2000
CC(CN1CCO[C@@H](C)C1)Nc1ccc2c(c1)Sc1cccc(-c3cc(N4CCOCC4)cc(=O)[nH]3)c1S2 (stereo partly drawn) [Example 1-43-8, 6-(7-((4-((S)-2-Methylmorpholino)propan-2-yl)amino)thianthren-1-yl)-4-morpholino pyridin-2(1H)-one]	500 to 2000
O=c1cc(N2CCOCC2)cc(-c2cccc3c2Sc2ccc(NCCCc4cccnc4)cc2S3)[nH]1 [Example 1-12-27, 4-Morpholino-6-(7-((3-(pyridin-3-yl)propyl)amino)thianthren-1-yl)pyridin-2(1H)-one]	500 to 2000
CCCCN1CCC(Nc2ccc3c(c2)Cc2cccc(-c4cc(N5CCOCC5)cc(=O)[nH]4)c2O3)CC1 [Example 2-28-33, 6-(7-((1-Butylpiperidin-4-yl)amino)-9H-xanthen-4-yl)-4-morpholino pyridin-2 (1H)-one]	100 to 500
Cn1cc(-c2cncc(CNc3ccc4c(c3)Cc3cccc(-c5cc(N6CCOCC6)cc(=O)[nH]5)c3O4)c2)cn1 [Example 2-2-49, 6-(7-(((5-(1-Methyl-1H-pyrazol-4-yl)pyridin-3-yl)methyl)amino)-9H-xanthen-4-yl)-4-morpholino pyridin-2(1H)-one]	100 to 500
CC[C@H](N)C(CC(C)C)Nc1ccc2c(c1)Sc1cccc(-c3cc(N4CCOCC4)cc(=O)[nH]3)c1S2 (stereo partly shown) [Example 1-20-7]	500 to 2000
CN(C)C1CCN(c2cccc(CNc3ccc4c(c3)Sc3cccc(-c5cc(N6CCOCC6)cc(=O)[nH]5)c3S4)n2)C1 (stereo not shown) [Example 1-12-35, 6-(7-(((6-(3-(Dimethylamino)pyrrolidin-1-yl)pyridin-2-yl)methyl)amino)thianthren-1-yl)-4-morpholino pyridin-2 (1H)-one]	100 to 500
O=c1cc(N2CCOCC2)cc(-c2nccc3c2Oc2ccc(NCc4cc(C5CC5)ccn4)cc2C3)[nH]1 [Example 2-41-6, 6-(7-(((4-Cyclopropylpyridin-2-yl)methyl)amino)-5H-chromeno[2,3-c]pyridin-1-yl)-4-morpliolino pyridin-2 (1H)-one]	100 to 500
